The assay deals with MG-63 cells. Briefly: Ganciclovir cytotoxicity/bystander effects in HStk vector transduced MG-63 cells. The assay is classed as cell-based, human. The note with it: GCV 20 μg/ml, 10 days. On the procedure: Initial dose-response studies determined the sensitivity of MG-63 cells and the optimal concentrations of G418 used to select transduced cells. Upon G418 selection, varying proportions of HStk-transduced and non-transduced MG-63 cells (plating density 2.5×10^4 cells) were exposed to 20 μg GCV/ml D10 in each of six-well plates, for 10 days. […] Bystander effects of GCV treatment were compared to those in HStk-transduced NIH 3T3 cells (ATCC No. CRL 1658).

This is an account of results in US7605142B2, “Expression of cyclin G1 in tumors” (University of Southern California, priority 1995, dated 2009).

Regarding `Nc1nc(O)c2ncn(COC(CO)CO)c2n1` [GCV, ganciclovir], the degree of confluency runs as follows: (10% HStk+/90% HStk− MG-63 cells) 15%; (30% HStk+/70% HStk− MG-63 cells) 15%; (50% HStk+/50% HStk− MG-63 cells) 10%; (100% HStk− (non-transduced) MG-63 cells) 75%; (greater than 50% HStk+ MG-63 cells) under 10%.
